The target in experiment [1] is T1, Peroxisome proliferator-activated receptor alpha (Mus musculus, UniProt P23204).
T1 sequence (P23204 whole entry): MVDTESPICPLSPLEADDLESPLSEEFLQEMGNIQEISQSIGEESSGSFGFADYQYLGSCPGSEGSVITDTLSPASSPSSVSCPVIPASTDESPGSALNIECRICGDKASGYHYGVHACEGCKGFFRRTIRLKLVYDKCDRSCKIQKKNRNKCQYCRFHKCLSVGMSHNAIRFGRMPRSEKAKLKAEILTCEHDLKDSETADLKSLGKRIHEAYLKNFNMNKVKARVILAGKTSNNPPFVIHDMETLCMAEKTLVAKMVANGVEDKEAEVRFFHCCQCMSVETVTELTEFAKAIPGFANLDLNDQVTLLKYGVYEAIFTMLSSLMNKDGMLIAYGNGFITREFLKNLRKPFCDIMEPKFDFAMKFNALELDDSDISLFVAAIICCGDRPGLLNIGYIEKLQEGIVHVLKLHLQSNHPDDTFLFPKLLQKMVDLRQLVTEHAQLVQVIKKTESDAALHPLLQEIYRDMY
The experiment in a line: Effective concentration against murine PPARalpha in transactivation assay.

Experiment [2] deals with T2, Peroxisome proliferator-activated receptor alpha (Mus musculus) (UniProt P23204).
T2 sequence (whole entry): T1 sequence (P23204 whole entry)
The experiment in a line: Efficacy against murine PPARalpha relative to Wy-14,643.

Experiment [3] concerns the target T3, Peroxisome proliferator-activated receptor alpha (Homo sapiens) (UniProt Q07869).
T3 sequence (whole entry): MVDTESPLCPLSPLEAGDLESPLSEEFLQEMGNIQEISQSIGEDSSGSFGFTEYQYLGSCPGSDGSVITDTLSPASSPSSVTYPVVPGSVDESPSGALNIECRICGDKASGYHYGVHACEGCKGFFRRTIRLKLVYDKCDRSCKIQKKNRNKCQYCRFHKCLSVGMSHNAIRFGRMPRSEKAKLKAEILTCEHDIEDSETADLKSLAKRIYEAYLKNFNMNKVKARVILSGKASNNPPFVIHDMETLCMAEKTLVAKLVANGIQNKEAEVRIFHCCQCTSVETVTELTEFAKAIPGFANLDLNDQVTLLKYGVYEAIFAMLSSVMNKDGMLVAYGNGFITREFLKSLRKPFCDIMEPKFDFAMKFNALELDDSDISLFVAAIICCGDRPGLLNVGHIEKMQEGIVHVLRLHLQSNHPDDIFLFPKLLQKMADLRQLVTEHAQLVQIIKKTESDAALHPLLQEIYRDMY
The experiment in a line: Efficacy against human PPARalpha expressed in HepG2 cells relative to Wy-14,643. It is filed as cell-based.

The target of experiment [4] is T4, Peroxisome proliferator-activated receptor alpha (Homo sapiens, UniProt Q07869).
T4 sequence (Q07869 whole entry): T3 sequence (whole entry)
Put plainly: Effective concentration against human PPARalpha expressed in HepG2 cells. The experiment is classed as cell-based.

Experiment [5] has as its target T5, Peroxisome proliferator-activated receptor gamma (Homo sapiens, UniProt P37231).
T5 sequence (P37231 whole entry): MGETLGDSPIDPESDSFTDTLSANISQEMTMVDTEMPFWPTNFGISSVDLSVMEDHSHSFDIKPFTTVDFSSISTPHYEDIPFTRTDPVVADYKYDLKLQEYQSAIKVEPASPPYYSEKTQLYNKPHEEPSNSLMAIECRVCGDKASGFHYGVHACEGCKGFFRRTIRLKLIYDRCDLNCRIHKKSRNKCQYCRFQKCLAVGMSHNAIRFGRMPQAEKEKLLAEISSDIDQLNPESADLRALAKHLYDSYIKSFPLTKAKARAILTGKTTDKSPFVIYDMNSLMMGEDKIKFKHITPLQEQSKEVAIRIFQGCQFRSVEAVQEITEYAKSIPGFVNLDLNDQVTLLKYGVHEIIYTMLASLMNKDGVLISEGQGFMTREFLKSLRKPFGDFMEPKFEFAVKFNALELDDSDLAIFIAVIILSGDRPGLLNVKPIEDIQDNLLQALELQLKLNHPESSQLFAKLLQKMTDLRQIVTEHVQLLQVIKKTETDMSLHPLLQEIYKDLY

The target in experiment [6] is T5, Peroxisome proliferator-activated receptor gamma. The experiment in a line: Effective concentration against human PPARgamma expressed in HepG2 cells; i.a = inactive at tested concentration. The experiment is classed as cell-based.
Experiment [7] addresses T4, Peroxisome proliferator-activated receptor alpha. Put plainly: Effective concentration against human PPARalpha expressed in HepG2 cells; i.a = inactive at tested concentration. The experiment is classed as cell-based.

One may read the EC50 as the concentration at which the effect is half-maximal. Read a high EC50 as a less potent agent. Consider `O=C(O)[C@H](Cc1ccccc1)Oc1ccc(C(F)(F)F)cc1`, for which the EC50 in experiment [1] was found to be 0.27 µM; in experiment [4], 0.5 µM; in experiment [5] it was 0.9 µM. Further, the Efficacy in experiment [2] turned out to be 107; in experiment [3] it was 80.7.

For `COc1ccc(O[C@@H](Cc2ccccc2)C(=O)O)cc1`, in experiment [3], the Efficacy stood at 80.7. For the same compound, the EC50 came out at 2.5 µM in experiment [4] and 20.1 µM in experiment [5].

Regarding `CCc1ccc(O[C@@H](Cc2ccccc2)C(=O)O)cc1`, the EC50 in experiment [1] was determined as 0.35 µM; in experiment [4], 0.7 µM; in experiment [5], 3.6 µM. Besides, the Efficacy in experiment [2] turned out to be 127; in experiment [3], 114.

In the case of `CC(C)(Oc1ccc(Cl)cc1)C(=O)O` [CLOFIBRIC ACID], the EC50 was 42 µM in experiment [1], 39.6 µM in experiment [4] and 309 µM in experiment [5]. The Efficacy turned out to be 67.2 in experiment [2] and 89.7 in experiment [3].

Regarding `Cc1cccc(Nc2cc(Cl)nc(SCC(=O)O)n2)c1C` [PIRINIXIC ACID], the EC50 result in experiment [6] is “Not Active”. For the same compound, the Efficacy in experiment [2] and in experiment [3] was 100 each time.

In the case of `O=C(O)[C@@H](Cc1ccccc1)Oc1ccc(Cl)cc1`, the Efficacy in experiment [3] is 14.3. The EC50 in experiment [4] came out at 10.9 µM; in experiment [5], 10.5 µM.

For the compound `O=C(O)[C@H](Cc1ccccc1)Oc1ccc(-c2cccs2)cc1`, the EC50 came out at 0.15 µM in experiment [1], 0.9 µM in experiment [4] and 1.6 µM in experiment [5]. Further, the Efficacy turned out to be 70.7 in experiment [2] and 93.2 in experiment [3].

In the case of `O=C(O)[C@H](Cc1ccccc1)Oc1ccc(Cl)cc1`, the EC50 amounted to 1.3 µM in experiment [1], 3.9 µM in experiment [4] and 2.7 µM in experiment [5]. Moreover, the values for the Efficacy in experiment [2] and in experiment [3] were 49.1 and 99.4, respectively.

In the case of `O=C(O)[C@H](Cc1ccccc1)Oc1ccc(-c2ccccc2)cc1`, the EC50 in experiment [1] turned out to be 0.2 µM. Further, the Efficacy in experiment [2] came to 99.3; in experiment [3], 124.

In experiment [3], `CCC[C@H](Oc1ccc2ccccc2c1)C(=O)O` gave an Efficacy of 95.6. Besides, the EC50 came out at 8.4 µM in experiment [4] and 7.2 µM in experiment [5].

In experiment [3], `CCC[C@H](OCc1ccc(-c2ccc(Cl)cc2)cc1)C(=O)O` yielded an Efficacy of 29.8. In addition, the EC50 in experiment [4] turned out to be 3.9 µM; in experiment [5], 8.9 µM.

For `O=C(O)[C@H](Cc1ccccc1)Oc1ccc2ccccc2c1`, the Efficacy in experiment [3] amounted to 130. In addition, the figures for the EC50 in experiment [4] and in experiment [5] were 1.4 µM and 1.5 µM, respectively.

Take `CC(=O)c1ccc(O[C@@H](Cc2ccccc2)C(=O)O)cc1`: the Efficacy in experiment [3] is 68.3. The EC50 in experiment [4] came out at 13.5 µM; in experiment [5], 12.4 µM.

Consider `CN(CCOc1ccc(CC2SC(=O)NC2=O)cc1)c1ccccn1` (centres undefined) [ROSIGLITAZONE], for which, in experiment [7], the concentration giving a half-maximal response (EC50) entry is reported as “Not Active”.

Consider `CCC[C@@H](Oc1ccc2ccccc2c1)C(=O)O`, for which the Efficacy in experiment [3] was found to be 10.5. The half-maximal effective concentration (EC50) in experiment [4] was found to be 3.9 µM; in experiment [5] it was 12.5 µM.

In experiment [3], `O=C(O)[C@H](Cc1ccccc1)Oc1ccc(CO)cc1` yielded an Efficacy of 38.2. Besides, the EC50 was 28.7 µM in experiment [4] and 25.7 µM in experiment [5].

With `CCC[C@@H](OCc1ccc(-c2ccc(Cl)cc2)cc1)C(=O)O`, the Efficacy in experiment [3] came to 36.6. The EC50 in experiment [4] was found to be 4 µM; in experiment [5] it was 5.4 µM.

These data come from ChEMBL document CHEMBL1145171, “Synthesis, biological evaluation, and molecular modeling investigation of new chiral fibrates with PPARalpha and PPARgamma agonist activity” (J Med Chem, 2005).
